The values that follow come from patent publication US5582814A, “1-(p-n-butylbenzyl) DTPA for magnetic resonance imaging” (Metasyn, Inc., priority 1994, dated 1996).

Series [1] is described as follows: Rat liver uptake of 153Gd-labeled chelates. In kind it is in vivo, Sprague Dawley rat. Conditions: 50 μmol/kg tail vein. The protocol:
Un-anesthetized adult male Sprague Dawley rats (200-300 g) were injected in the tail vein with 50 μmol/kg of gadolinium chelate labeled with ^153 Gd. Rats (approx. 3 per time period) were euthanized by cervical dislocation (while anesthetized by CO2) at 1, 5 and 30 min. post-injection. The liver was analyzed for ^153 Gd concentration using a gamma counter. The percentage of the injected dose (% ID) in the liver was determined for each time point and the integrated area under the mean liver % ID time curve (AUC) was calculated.

Series [2] in a line: Relaxivity in rat liver cytosol. In kind it is biochemical. The conditions noted are these: 20 MHz, 37° C.; Gd(III) complexes in rat liver cytosol. The protocol:
The relaxivity of the Gd(III) complexes in cytosol was measured at 37 ° C. using a Bruker 20MHz Minispec equipped with a variable temperature probe. The inversion-recovery pulse sequence with 10 data points was used for T1 measurements. 1/T1 relaxation rates of solutions with varying concentrations of the chelates (0.01-0.5 mM) were determined. The limiting slope of the 1/T1 vs concentration plot at low concentrations of the chelates in units of s^-1 mM^-1 was taken as the relaxivity (R1) of the chelate in cytosol.
Higher relaxivity values imply higher binding affinity to cytosolic proteins and/or greater relaxivity when bound.

The conditions of series [3]: in vivo.
Experimental: Anesthetized (pentobarbital, 35 mg/kg, ip.) adult rabbits (2.5-4 kg) were administered 50 μmol/kg of a ^153 Gd-labeled chelate (approximately30 μCi/kg) via a cannulated marginal ear vein. Rabbits (1 per compound) were positioned supine under a gamma camera set with a photo peak energy of 100 keV +/- 20% and equipped with a low energy parallel hole collimator. Immediately after chelate administration, dynamic planar whole body scintigraphy was performed every five minutes for at least one hour. Images were acquired in a 64×64 matrix, and region of interest (ROI) analysis was performed using the Image 1.52 software package (National Institutes of Health). Percent injected does (% ID) in the liver at 5 min. intervals was calculated by dividing the counts in the liver ROI by the total counts in the body.
Series [4] in a line: 1/T1 relaxation rates of excised rat liver. The series is classed as in vivo, Sprague Dawley rat. The conditions noted are these: 50 μmol/kg tail vein, 20 MHz, 37° C. As to the method:
Rats (approx. 3 per time period) were euthanized by cervical dislocation (while anesthetized by CO2) at 1, 5 and 30 min. post-injection. […] The percentage of the injected dose (% ID) in the liver was determined for each time point and the integrated area under the mean liver % ID time curve (AUC) was calculated.
For the 5 min. time period, the 1/T1 proton relaxation rate of the excised liver was measured at 20MHz and 37° C. as described above. Higher 1/T1 values are associated with greater MRI signal intensity on T1 -weighted images and are due to greater liver uptake of the agent and/or greater relaxivity in the microenvironments of the liver.

A short description of series [5]: Liver and bile specificity relative to structurally similar contrast agents (summary statement). Conditions: relative to structurally similar contrast agents previously disclosed. In kind it is in vivo. An excerpt:
Thus, this invention provides a method for tissue-specific contrast enhancement of MR images of mammalian organs and tissues. In particular, the method allows for contrast enhancement of MR images of the hepatobiliary system. […] MS-264 can also be used for tissue-specific imaging of tumors and the blood pool.

A short description of series [6]: Biliary excretion in monkeys. Conditions: monkey, n = 2, 50 μmol/kg iv bolus.
Experimental: Two adult male cynomolgus monkeys used for scintigraphic imaging were injected on different days with iv bolus of 50 μmol/kg of the chelates labeled with ^153 Gd (approximately 40 μCi/kg). Following completion of the imaging study, the animals were placed in metabolic cages and their total urine void and excreted feces were measured using a gamma counter at 24 and 48 hr post compound administration.

On to `O=C(O)CN(CCN(CC(=O)O)CC(Cc1ccccc1)N(CC(=O)O)CC(=O)O)CC(=O)O` (centres unmarked) [1-(benzyl)], for which the “Area under the % inj. dose in rat liver vs time curve (AUC) from 0 to 30 min” value (shortened to “Area under the % inj. dose in rat liver”) in series [1] turned out to be 213. Besides, the “R1 in liver cytosol (relaxivity)” value in series [2] turned out to be 11.7 s⁻¹ mM⁻¹.

With “gadolinium(III)-1-(p-n-butylbenzyl)diethylenetriamine pentaacetate dimeglumine salt [MS-264]”, in series [3], the “Area under the % inj. dose in rabbit liver vs time curve (AUC) from 0 to 30 min” value is on record as 1120. For the same compound, in series [1], the “Area under the % inj. dose in rat liver” value was 491. The “1/T1 of excised rat liver 5 min. post-inj.” value in series [4] came out at 14.6 ± 0.2 s⁻¹. Besides, the “R1 in liver cytosol (relaxivity)” value in series [2] is 23.8 s⁻¹ mM⁻¹. Further, the “liver and bile specificity” value in series [5] is “surprisingly superior liver and bile specificity”.

As to `CCOc1ccc(C[C@@H](CN(CCN(CC(=O)O)CC(=O)O)CC(=O)O)N(CC(=O)O)CC(=O)O)cc1` [1-(p-ethoxybenzyl)], in series [3], the “Area under the % inj. dose in rabbit liver vs time curve (AUC) from 0 to 30 min” value amounted to 480. Also, the “Area under the % inj. dose in rat liver” value in series [1] was 408. Also, the “1/T1 of excised rat liver 5 min. post-inj.” value in series [4] was 10.1 ± 1.5 s⁻¹. The “R1 in liver cytosol (relaxivity)” value in series [2] stood at 14.4 s⁻¹ mM⁻¹. Moreover, the “% of recovered activity in feces (biliary excretion) of monkeys over 48 hr” value in series [6] was found to be 35 ± 3%.

Take `CCc1ccc(CC(CN(CCN(CC(=O)O)CC(=O)O)CC(=O)O)N(CC(=O)O)CC(=O)O)cc1` (centres unmarked) [1-(p-ethylbenzyl)]: the “Area under the % inj. dose in rabbit liver vs time curve (AUC) from 0 to 30 min” value in series [3] came to 553. Further, the “Area under the % inj. dose in rat liver” value in series [1] worked out at 469. In addition, in series [4], the “1/T1 of excised rat liver 5 min. post-inj.” value was found to be 12.3 ± 0.9 s⁻¹. For the same compound, the “R1 in liver cytosol (relaxivity)” value in series [2] turned out to be 16.4 s⁻¹ mM⁻¹. Also, the “% of recovered activity in feces (biliary excretion) of monkeys over 48 hr” value in series [6] worked out at 48 ± 10%.

For `O=C(O)CN(CCN(CC(=O)O)CC(CCc1ccccc1)N(CC(=O)O)CC(=O)O)CC(=O)O` (centres unmarked) [1-(phenylethyl)], in series [2], the “R1 in liver cytosol (relaxivity)” value came to 13.6 s⁻¹ mM⁻¹.

Regarding `O=C(O)CN(CCN(CC(=O)O)CC(=O)O)CCN(CC(=O)O)C(COCc1ccccc1)C(=O)O` (centres unmarked) [BOPTA], the “R1 in liver cytosol (relaxivity)” value in series [2] came to 11.3 s⁻¹ mM⁻¹.

“diethylenetriamine pentaacetic acid [DTPA]”: the “Area under the % inj. dose in rat liver” value in series [1] was 35. Besides, the “1/T1 of excised rat liver 5 min. post-inj.” value in series [4] came to 4.64 ± 0.16 s⁻¹. Further, in series [2], the “R1 in liver cytosol (relaxivity)” value worked out at 7.1 s⁻¹ mM⁻¹.

In the case of `Cc1ccc(CC(CN(CCN(CC(=O)O)CC(=O)O)CC(=O)O)N(CC(=O)O)CC(=O)O)c(C)c1` (centres unmarked) [1-(2,4-di-Me-benzyl)], in series [1], the “Area under the % inj. dose in rat liver” value is 404. The “1/T1 of excised rat liver 5 min. post-inj.” value in series [4] is 10.2 ± 0.6 s⁻¹. In addition, the “R1 in liver cytosol (relaxivity)” value in series [2] was found to be 15.3 s⁻¹ mM⁻¹.

On to `CC(C)c1ccc(CC(CN(CCN(CC(=O)O)CC(=O)O)CC(=O)O)N(CC(=O)O)CC(=O)O)cc1` (centres unmarked) [1-(p-isopropylbenzyl)], for which the “Area under the % inj. dose in rabbit liver vs time curve (AUC) from 0 to 30 min” value in series [3] is reported as 910. Further, the “Area under the % inj. dose in rat liver” value in series [1] amounted to 400. Further, the “1/T1 of excised rat liver 5 min. post-inj.” value in series [4] stood at 10.9 ± 1.2 s⁻¹. In addition, the “R1 in liver cytosol (relaxivity)” value in series [2] worked out at 18.7 s⁻¹ mM⁻¹.
